Read-outs that look alike come from different tables or passages of the source.
Experiments:
[1] = Rat pharmacokinetic (PK) study, oral suspension; assay type: in vivo, male rats (Sprague Dawley); conditions: for pharmacokinetic properties (Cmax and AUC) compared to the parent thiazole acetamide: compared with the corresponding parent compound of formula (1); for Cmax / AUC(0-t): rat, plasma, parent thiazole compound of the example, male Sprague Dawley rats, oral suspension; for AUC(0-t): read-out: AUC0-24
Experimental: PK values were obtained in male rats (strain: Sprague Dawley) orally dosed with the compounds of the present invention as suspension. Accurately weighed quantity of compound of present invention (corrected for purity and salt factor) was transferred into a clean and dry mortar. To this mortar was added 2.5 μL/mL Tween 80 and triturated until the compound gets properly wet. To this, 0.5% (w/v) methyl cellulose suspension was added in geometric proportions and triturated thoroughly to form a uniform suspension.
Animals were provided with food and water ad libitum through out the study period. Animals were dosed orally with the compounds using a gavage needle at 10 mL/kg body weight. Blood samples (250 μl approx.) were collected from male Sprague Dawley retro orbital sinus using rat capillary tubes into 0.6 mL eppendorf tubes with tripotassium ethylenediaminetetraacetic acid (K3 EDTA) (25 μL) as anticoagulant. Samples were collected at 0.5, 1.0, 2.0, 4.0, 6.0, 8.0, 12.0 and 24.0 hr post dosing for compounds. Then samples were centrifuged immediately at 1000 g for 10 min. at 4° C. Plasma samples were separated and stored at −70° C. till analysis. Samples were processed and analyzed using LCMS/MS. Pharmacokinetic parameters were calculated using Winonlin software. Table 4 provides the pK values (Cmax, AUC) obtained in these studies.

[2] = target: T1, Human TRPA1 (Homo sapiens, UniProt O75762); assay: 45Calcium uptake assay: inhibition of AITC induced cellular uptake of radioactive calcium; assay type: cell-based; conditions: human TRPA1 expressing CHO cells, AITC 30 μM; for inhibition at 1 µM: read-out: Percentage inhibition at 1.0 μM; for inhibition at 10 µM: read-out: Percentage inhibition at 10.0 μM
T1 construct: expressed in transfected cells; host or cells: CHO cells (grown with 400 μg/ml G-418)
Experimental: The illustrative examples of the present invention were screened for TRPA1 activity according to a modified procedure described in (a) Tóth, A. et al. Life Sciences, 2003, 73, 487-498. ([…]. et al, Proc. Natl. Acad. Sci. U.S.A., 2007, 104, 13525-13530. The screening of the compounds can be carried out by other methods and procedures known to persons skilled in the art. Screening for TRPA1 Antagonist Using the ^45Calcium Uptake Assay: The inhibition of TRPA1 receptor activation was measured as inhibition of allyl isothiocyanate (AITC) induced cellular uptake of radioactive calcium. Test compounds were dissolved in 100% DMSO to prepare 10 mM stock and then diluted using plain medium with 0.1% BSA and 1.8 mM CaCl2 to get the desired concentration. The final concentration of DMSO in the reaction was 0.5% (v/v). Human TRPA1 expressing CHO cells were grown in F-12 DMEM medium with 10% FBS, 1% penicillin-streptomycin solution, and 400 μg/ml of G-418. Cells were seeded 24 h prior to the assay in 96 well plates so as to get 50,000 cells per well on the day of experiment. Cells were treated with the test compounds for 10 minutes followed by the addition of AITC at a final concentration of 30 μM and 5 μCi/ml^45Ca^+2 for 3 minutes. Cells were washed and lysed using a buffer containing 1% Triton X-100, 0.1% deoxycholate and 0.1% SDS. Radioactivity in the lysate was measured in a Packard TopCount after addition of liquid scintillant. (Toth et al, Life Sciences (2003) 73, 487-498; McNamara C R et al, Proceedings of the National Academy of Sciences, (2007) 104, 13525-13530). Concentration response curves were plotted as a % of maximal response obtained in the absence of test antagonist. IC50 values can be calculated from concentration response curve by nonlinear regression analysis using GraphPad PRISM software.

[3] = Determination of solubility by shake flask method (water); assay type: physicochemical; conditions: for solubility at 15 min: thermodynamic from solid, water, 37° C., shake flask
Experimental: About 1 mg of test substance was taken in test tube and water was added in the increment of 1 ml with shaking after addition of media (water). Solubility was observed visually also. After completion of addition of 10 ml volume of media (water), test tube containing sample solution were put on a mechanical shaker set at 37° C. and 200 rpm for shaking up to 15 minute. After shaking, content of flask was filtered through 0.45μ filter. This filtered solution is analyzed using HPLC method for quantification. A sample solution of 1 mg in 10 ml of DMSO is used as reference standard for quantifying dissolved test substance in media. Solubility is expressed as mcg/ml.
Aqueous solubility of ‘P’ substituted thiazole compounds and the parent thiazole compounds were determined using the above described procedure and the results are given Table 3.

[4] = ‘P’ substituted thiazole compound
[5] = parent thiazole compound of the example

T1 sequence (O75762 whole entry): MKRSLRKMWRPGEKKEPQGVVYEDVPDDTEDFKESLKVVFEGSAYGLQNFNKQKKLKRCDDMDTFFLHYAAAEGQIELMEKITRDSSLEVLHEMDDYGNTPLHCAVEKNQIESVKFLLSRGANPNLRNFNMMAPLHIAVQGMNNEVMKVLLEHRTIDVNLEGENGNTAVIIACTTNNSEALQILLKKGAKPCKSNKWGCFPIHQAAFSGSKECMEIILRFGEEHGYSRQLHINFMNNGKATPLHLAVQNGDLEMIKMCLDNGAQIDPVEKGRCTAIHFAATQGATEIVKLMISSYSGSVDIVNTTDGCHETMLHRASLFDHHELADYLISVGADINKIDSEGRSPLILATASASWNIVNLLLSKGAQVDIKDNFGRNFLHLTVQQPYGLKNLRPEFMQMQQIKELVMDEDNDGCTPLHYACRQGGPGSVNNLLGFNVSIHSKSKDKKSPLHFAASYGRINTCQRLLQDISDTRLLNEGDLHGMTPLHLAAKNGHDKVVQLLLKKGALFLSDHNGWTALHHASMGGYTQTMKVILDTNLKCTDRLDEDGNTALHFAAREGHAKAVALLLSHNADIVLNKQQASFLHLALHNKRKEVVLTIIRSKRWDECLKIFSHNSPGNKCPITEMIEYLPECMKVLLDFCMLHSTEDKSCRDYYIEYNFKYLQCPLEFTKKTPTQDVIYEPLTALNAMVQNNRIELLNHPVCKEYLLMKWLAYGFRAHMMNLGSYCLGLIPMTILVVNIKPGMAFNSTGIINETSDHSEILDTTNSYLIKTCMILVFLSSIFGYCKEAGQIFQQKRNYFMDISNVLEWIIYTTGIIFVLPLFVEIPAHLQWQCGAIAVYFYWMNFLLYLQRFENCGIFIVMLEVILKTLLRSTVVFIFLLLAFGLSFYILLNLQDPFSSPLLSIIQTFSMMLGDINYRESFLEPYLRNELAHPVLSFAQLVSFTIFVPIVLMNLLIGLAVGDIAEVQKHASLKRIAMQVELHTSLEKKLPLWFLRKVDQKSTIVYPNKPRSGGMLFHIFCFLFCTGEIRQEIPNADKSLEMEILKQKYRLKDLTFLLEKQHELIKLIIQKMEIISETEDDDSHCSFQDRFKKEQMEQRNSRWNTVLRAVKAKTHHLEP

| Compound | pharmacokinetic properties (Cmax and AUC) compared to the parent thiazole acetamide [1] | IC50 [2] [nM] | inhibition at 10 µM ([2]; CHO) [%] | solubility at 15 min [3, 4] [µg/mL] | Cmax [1] [ng/mL] | AUC(0-t) [1] [ng·h/mL] | solubility at 15 min [3, 5] [µg/mL] | further results |
| --- | --- | --- | --- | --- | --- | --- | --- | --- |
| Cn1c(=O)c2c(CC(=O)/N=c3\scc(-c4ccc(C(F)(F)F)c(F)c4)n3COP(=O)(O)O)csc2n(C)c1=O [Example 11, [2-{[(1,3-Dimethyl-2,4-dioxo-1,2,3,4-tetrahydrothieno[2,3-d]pyrimidin-5-yl)acetyl]imino}-4-[3-fluoro-4-(trifluoromethyl)phenyl]-1,3-thiazol-3 (2H)-yl]methyl dihydrogen phosphate] | better pharmacokinetic properties | > 500 |  |  |  |  |  | inhibition at 1 µM ([2]; 1.0 μM): 53.4%; inhibition at 10 µM [2]: 99.8%; aqueous solubility over the parent thiazole acetamide ([3]; compared with the corresponding parent compound of formula (1)): better aqueous solubility |
| Cc1oc2c(c1CC(=O)/N=c1\scc(-c3ccc(OC(F)(F)F)c(Cl)c3)n1COP(=O)(O)O)c(=O)n(C)c(=O)n2C [Example 25, [4-[3-Chloro-4-(trifluoromethoxy)phenyl]-2-{[(1,3,6-trimethyl-2,4-dioxo-1,2,3,4-tetrahydrofuro[2,3-d]pyrimidin-5-yl)acetyl]imino}-1,3-thiazol-3 (2H)-yl]methyl dihydrogen phosphate] | better pharmacokinetic properties | > 500 | 97.8 | > 10 |  |  |  | Percentage inhibition at 1.0 μM ([2]; 1.0 μM): 46.47% |
| Cn1nc2c(c1CC(=O)/N=c1\scc(-c3ccc(F)c(C(F)(F)F)c3F)n1COP(=O)(O)O)c(=O)n(C)c(=O)n2C [Example 28, 4-(2,4-Difluoro-3-(trifluoromethyl)phenyl)-2-((2-(2,5,7-trimethyl-4,6-dioxo-4,5,6,7-tetrahydro-2H-pyrazolo[3,4-d]pyrimidin-3-yl)acetyl)imino)thiazol-3 (2H)-yl)methyl dihydrogen phosphate] | better pharmacokinetic properties | > 500 | 92.4 | > 30 |  |  |  | inhibition at 1 µM ([2]; CHO, 1.0 μM): 29.5% |

Second part, led by results:

| pharmacokinetic properties (Cmax and AUC) compared to the parent thiazole acetamide [1] | IC50 [2] [nM] | inhibition at 10 µM ([2]; CHO) [%] | solubility at 15 min [3, 4] [µg/mL] | Cmax [1] [ng/mL] | AUC(0-t) [1] [ng·h/mL] | solubility at 15 min [3, 5] [µg/mL] | Compound | further results |
| --- | --- | --- | --- | --- | --- | --- | --- | --- |
|  |  |  |  | < 250 | < 4000 | < 0.2 | Cn1c(=O)c2c(CC(=O)Nc3nc(-c4ccc(F)c(C(F)(F)F)c4F)cs3)csc2n(C)c1=O [parent of Example 10, N-{4-[2,4-difluoro-3-(trifluoromethyl)phenyl]-1,3-thiazol-2-yl}-2-(1,3-dimethyl-2,4-dioxo-1,2,3,4-tetrahydrothieno[2,3-d]pyrimidin-5-yl)acetamide, reference compound] |  |
|  |  |  |  | < 250 | < 3000 | < 1.1 | Cc1oc2c(c1CC(=O)Nc1nc(-c3ccc(OC(F)(F)F)c(Cl)c3)cs1)c(=O)n(C)c(=O)n2C [parent of Example 25, N-{4-[3-chloro-4-(trifluoromethoxy)phenyl]-1,3-thiazol-2-yl}-2-(1,3,6-trimethyl-2,4-dioxo-1,2,3,4-tetrahydrofuro[2,3-d]pyrimidin-5-yl)acetamide, reference compound] |  |
|  |  |  |  | < 500 | < 7000 | < 0.1 | Cn1nc2c(c1CC(=O)Nc1nc(-c3ccc(F)c(C(F)(F)F)c3F)cs1)c(=O)n(C)c(=O)n2C [parent of Example 28, N-(4-(2,4-difluoro-3-(trifluoromethyl)phenyl)thiazol-2-yl)-2-(2,5,7-trimethyl-4,6-dioxo-4,5,6,7-tetrahydro-2H-pyrazolo[3,4-d]pyrimidin-3-yl)acetamide, reference compound] |  |
